Data: patent EP1106702A1, “High-throughput screening of compounds using electrospray ionization mass spectrometry (ESI-MS)” (AGOURON PHARMACEUTICALS, INC., priority 1999, dated 2001)
One block for each molecule: values may come before it.

Legend:
6:7 duplex [1] = experiment: ESI-MS monitoring of non-covalent small molecule:oligonucleotide complexes with DNA duplex; type: binding; details: for ammonium acetate concentration tolerated with binding/complex stable: ammonium acetate varied from 10 mM to 250 mM; for relative binding affinity to 6:7 duplex: 10 mM ammonium acetate
Experimental: Regarding buffer concentration, the concentrations of ammonium acetate were varied to determine the effects of ionic strength on ligand binding. […] Of the intercalators, proflavin tolerated over 100 mM ammonium acetate with minimal shifting in binding. However, ethidium bromide and methyl green had almost 70% reduction in binding to DNA at only 33 mM ammonium acetate. The reduction in binding of ethidium bromide and methyl green at high salt concentrations is evidence of the electrostatic nature of the first step in binding in the intercalation of these compounds. Proflavin, which is […] at the test pH, should be less affected by an increase in competing counterions.
The general protocol for preparing the samples utilized in the present invention is as follows. Complementary single-stranded oligonucleotides are desalted, preferably via ammonium acetate precipitation. This DNA desalting procedure involves the following steps. First, the oligonucleotide is dissolved in approximately 100 µL of water. Next, about 500 µL of 10 M ammonium acetate is added. The solution is mixed and allowed to rest for about 5 minutes. From about 600 to about […] of cold ethanol (EtOH) is added and the solution is set in dry ice for about 25 minutes. The solution is then centrifuged for about 20 minutes. The supernatant is removed and saved and the preceding steps are repeated once. Subsequently, 1 ml of a 90:10 solution of EtOH and water are added and the solution is centrifuged for 5 minutes. This step is then repeated twice. The solution is then dried and rehydrated. Finally, OD readings are taken at 260 nanometers to ensure a 1:500 dilution.
(§1) The complementary oligonucleotide strands and corresponding oligonucleotide duplex are not critical to the invention. The duplex may comprise a DNA:DNA duplex, an RNA:RNA duplex or a DNA:RNA duplex. The DNA strands utilized herein are described in detail below. Once desalted, the complementary oligonucleotide strands are added in equimolar mixture in 50 mM ammonium acetate to make a […] duplex stock solution. The duplex stock solution is placed in a 60° C water bath for 10 minutes and then slowly cooled to room temperature. Test solutions are made by adding test compound (dissolved in methanol (MeOH)) to stock solution in a 2:1 water:isopropyl alcohol. Final concentrations of test compound and duplex are preferably 10 µM each. For example, 20 µL of the stock duplex solution is added to 80 µL of a 2:1 solution of water and IPA for a final volume of 100 µL and a final concentration of 10 µM duplex. The test compound is then added to the solution for a final concentration of 10 µM as well. One may subsequently dilute the test solution to test a range of test compound concentrations, from as low as 0.3 µM up to 10 µM.
Once the appropriate samples and solutions are prepared, one may proceed with the ESI-MS procedure. The general protocol for manual analysis is as follows. First, a 50 µL sample of test solution (comprised of about 30 picomoles of test compound) is drawn into a 100 µL syringe and infused into an LCQ Decca ion trap mass spectrometer using ESI-MS source. The sample is directly infused at a rate of about 1.5 µL/min over a period of approximately 2 minutes. The spectra is then analyzed for the presence of bound test ligand. If the test ligand does bind, the sample is re-run at lower concentrations, from about 0.3 µM up to 1.0 µM. In order to ensure statistical accuracy, data are preferably summed, saved, and analyzed over a large numbers of scans, preferably 30 to 50 scans, more preferably 40 scans.
The oligonucleotides utilized in the examples herein were known to interact with a particular target(s) of interest. They were provided according to our specifications from TriLink (La Jolla, CA). […] When the duplex solution was analyzed by ESI-MS, it was possible to see at least three charge stages of the duplex as well as some charge states of the two single strands. […]

ss DNA = experiment: ESI-MS monitoring of ligand binding to the single strands in the duplex mixture; details: 10 µM duplex 6:7 mixture, increasing ligand concentration
Experimental: as §1, with “For example, 20 µL of the stock duplex solution is added to 80 µL of a 2:1 solution of water and IPA for a final volume of 100 µL and a final concentration of 10 µM duplex. The test compound is then added to the solution for a final concentration of 10 µM as well. One may subsequently dilute the test solution to test a range of test compound concentrations, from as low as 0.3 µM up to 10 µM.” left out
Once the appropriate samples and solutions are prepared, one may proceed with the ESI-MS procedure. […] The spectra is then analyzed for the presence of bound test ligand. […] In order to ensure statistical accuracy, data are preferably summed, saved, and analyzed over a large numbers of scans, preferably 30 to 50 scans, more preferably 40 scans.
The oligonucleotides utilized in the examples herein were known to interact with a particular target(s) of interest. […] When the duplex solution was analyzed by ESI-MS, it was possible to see at least three charge stages of the duplex as well as some charge states of the two single strands. […]

E.coli DNA helicase II = E.coli DNA helicase II (Escherichia coli, UniProt P03018); details: intercalation into double-stranded DNA substrate; cited from earlier work
Chain of E.coli DNA helicase II (P03018 whole entry): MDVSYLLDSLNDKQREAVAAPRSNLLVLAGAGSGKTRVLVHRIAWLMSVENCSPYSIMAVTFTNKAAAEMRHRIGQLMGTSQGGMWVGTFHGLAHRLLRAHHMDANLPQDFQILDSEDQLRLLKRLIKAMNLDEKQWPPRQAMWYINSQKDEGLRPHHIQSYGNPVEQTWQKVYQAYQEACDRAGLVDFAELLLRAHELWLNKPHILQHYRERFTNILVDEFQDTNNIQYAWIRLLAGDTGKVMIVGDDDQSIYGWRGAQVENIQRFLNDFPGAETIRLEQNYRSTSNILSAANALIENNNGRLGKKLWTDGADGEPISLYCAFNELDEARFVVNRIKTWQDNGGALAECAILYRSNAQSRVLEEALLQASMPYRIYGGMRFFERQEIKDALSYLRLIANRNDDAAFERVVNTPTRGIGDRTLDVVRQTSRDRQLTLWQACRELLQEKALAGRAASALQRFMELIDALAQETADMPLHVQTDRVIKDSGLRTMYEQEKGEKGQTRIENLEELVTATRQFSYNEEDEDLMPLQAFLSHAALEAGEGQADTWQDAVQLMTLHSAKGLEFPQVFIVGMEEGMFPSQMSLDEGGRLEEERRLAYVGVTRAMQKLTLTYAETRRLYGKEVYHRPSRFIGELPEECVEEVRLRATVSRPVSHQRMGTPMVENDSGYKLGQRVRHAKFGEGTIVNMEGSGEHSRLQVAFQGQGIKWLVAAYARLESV
6:7 duplex [2] = experiment: ESI-MS monitoring of non-covalent small molecule:oligonucleotide complexes with DNA duplex; type: binding; details: 10 µM duplex and 10 µM proflavin; FT-ICR mass spectrometer
[3] = 33 mM ammonium acetate, 10 µM 6:7 duplex and 10 µM sample
[4] = 10 µM 6:7 duplex and 10 µM sample

Compound: CN1CCN(c2ccc3[nH]c(-c4ccc5[nH]c(-c6ccc(O)cc6)nc5c4)nc3c2)CC1 [H33258, bis-benzamide]
- relative amounts of the 1:1 H33258:DNA complex compared with the 2:1 H33258:DNA complex (6:7 duplex [1]; 33 mM ammonium acetate): shifted
- change in binding (in words) (6:7 duplex [1]; [3]): appreciable reduction in binding
- binding to single strand (ss DNA): ligand bound to ss DNA was observed in increasing quantities

Compound: Cn1cc(NC(=O)c2cc(NC(=O)c3cc(NC=O)cn3C)cn2C)cc1C(=O)NCCC(=N)N [distamycin A]
- ammonium acetate concentration tolerated with binding/complex stable (6:7 duplex [1]; [4]): up to 100 mM
- observation of ligand:DNA complex (6:7 duplex [1]; 500 mM ammonium acetate in solution): still observed (though at much reduced levels)

- reduction in binding to DNA (6:7 duplex [1]; [3]): ~70%
Compound: CN(C)c1ccc(C(=C2C=CC(=[N+](C)C)C=C2)c2ccc([N+](C)(C)C)cc2)cc1.[Cl-].[Cl-] [methyl green]
- relative binding affinity to 6:7 duplex (6:7 duplex [1]): methyl green > ethidium bromide > proflavin

Compound: O=C1c2c(O)ccc(O)c2C(=O)c2c(NCCNCCO)ccc(NCCNCCO)c21 [mitoxantrone]
- effect on helicase II ATP hydrolysis and unwinding activity (E.coli DNA helicase II): inhibition of ATP hydrolysis and unwinding activity

Compound: Nc1ccc2cc3ccc(N)cc3nc2c1 [proflavin]
- ammonium acetate concentration tolerated with binding/complex stable (6:7 duplex [1]; [4]): over 100 mM
- relative binding affinity to 6:7 duplex (6:7 duplex [1]): methyl green > ethidium bromide > proflavin
- binding between intercalator and duplex (6:7 duplex [2]): binding between intercalator and duplex was observed
